Patent EP1611112B1, “ISOXAZOLE COMPOUNDS AS INHIBITORS OF HEAT SHOCK PROTEINS” (Vernalis (Cambridge) Limited, priority 2003, dated 2004)
pIC50: −log10 of the molar value. Structures can show the parent of a compound that is named as a salt.

target: T1, yeast HSP90 (Saccharomyces cerevisiae, UniProt P02829); assay: Malachite Green ATPase assay; type: biochemical; settings: activity range
T1 construct: made in house; host or cells: E. coli
From the text: The intrinsic ATPase activity of HSP90 may be measured using yeast HSP90 as a model system. The assay, based on the use of malachite green for the measurement of inorganic phosphate, was used to test the HSP90 inhibitory activity of some of the compounds of the Examples herein.
Malachite Green ATPase Assay
Chemicals are of the highest purity commercially available and all aqueous solutions are made up in AR water. Because of the need to minimise contamination with inorganic phosphate, precautions should be taken with solutions and apparatus used in the assays. Glassware and pH meters are rinsed with double distilled or deionised water before use and, wherever possible, plastic ware should be used. Gloves are worn for all procedures. • (1) Greiner 384-well (Greiner 781101) or Costar 384-well flat-bottomed polystyrene multiwell plates (VWR). • (2) Assay buffer of (a) 100mM Tris-HCI, pH 7.4, (b) 150mM KCI, (c) 6mM MgCl2. Stored at room temperature. • (3) 0.0812% (w/v) malachite green (M 9636, Sigma Aldrich Ltd., Poole, UK). Stored at room temperature. • (4) 2.32% (w/v) polyvinyl alcohol USP (P 1097, Sigma Aldrich Ltd, Poole, UK) in boiling water (see Comment 1), allowed to cool, and stored at room temperature. • (5) 5.72% (w/v) ammonium molybdate in 6 M hydrochloric acid. Stored at room temperature. • (6) 34% (w/v) sodium citrate. Stored at room temperature. • (7) 100mM ATP, disodium salt, special quality (47699, Sigma Aldrich). Stored at -20°C. • (8) E. coli expressed yeast HSP90 protein, purified >95% (see, e.g., Panaretou et al., 1998) and stored in 50uL aliquots at -80°C.
• 1. Dilute test compounds to 500µM in AR water (DMSO concentration will be 2.5%). Transfer 2.5µl of these compounds directly from the daughter plate to the assay plate, giving a final assay concentration of 100µM. […] Column 1 in the assay plate contains no compound, as a negative control. An additional row with no compound is also used as a background. • 2. Prepare ATP by diluting 100mM stock to 925µM with assay buffer, and aliquot 5µl of diluted ATP to each well including controls (final assay concentration 370µM). • 3. Add 5µl of buffer to background row. • 4. Dilute enzyme preparation to 1.05µM with assay buffer, and aliquot 5µl into each compound well and to the negative control column. • 5. Collect the reagents to the bottom of the well, cover plate with plate seal and incubate overnight at 37degC. • 6. First thing in the morning prepare the Malachite Green Reagent. Add 2parts of Malachite Green Solution, 1 part of Polyvinyl Alcohol Solution, 1 part of Ammonium Molybdate Solution, and 2 parts of AR water. • 7. Invert to mix, and leave for approximately 1 hour until the colour turns from brown to golden yellow. • 8. Add 40µl of Malachite Green Reagent to each well, allow 5 mins for colour to develop. • 9. Add 5µl of Sodium Citrate Reagent to each well (see comment 2) • 10. Re-cover with plate seal and shake on plate shaker for at least 15 mins. • 11. Measure Absorbance at 620nm using a suitable plate reader (e.g. Victor, Perkin Elmer Life Sciences, Milton Keynes, UK). Under these conditions, the control absorbance is 0.9 to 1.4, and the background is 0.2-0.35 giving a signal to noise ratio of -12. The Z' factor calculated from data obtained using these conditions is between 0.6 and 0.9.
• (1) The polyvinyl alcohol dissolves in boiling water with difficulty and stirring for 2-3 h is required. • (2) The time interval between addition of the malachite green reagent and the sodium citrate should be kept as short as possible in order to reduce the non-enzymatic hydrolysis of ATP. Once the sodium citrate is added, the colour is stable for up to 4 h at room temperature. • (3) Compounds can be added to the assay plates using a Biomek FX Robot (Beckman Coulter). […]

T1 sequence (P02829 whole entry): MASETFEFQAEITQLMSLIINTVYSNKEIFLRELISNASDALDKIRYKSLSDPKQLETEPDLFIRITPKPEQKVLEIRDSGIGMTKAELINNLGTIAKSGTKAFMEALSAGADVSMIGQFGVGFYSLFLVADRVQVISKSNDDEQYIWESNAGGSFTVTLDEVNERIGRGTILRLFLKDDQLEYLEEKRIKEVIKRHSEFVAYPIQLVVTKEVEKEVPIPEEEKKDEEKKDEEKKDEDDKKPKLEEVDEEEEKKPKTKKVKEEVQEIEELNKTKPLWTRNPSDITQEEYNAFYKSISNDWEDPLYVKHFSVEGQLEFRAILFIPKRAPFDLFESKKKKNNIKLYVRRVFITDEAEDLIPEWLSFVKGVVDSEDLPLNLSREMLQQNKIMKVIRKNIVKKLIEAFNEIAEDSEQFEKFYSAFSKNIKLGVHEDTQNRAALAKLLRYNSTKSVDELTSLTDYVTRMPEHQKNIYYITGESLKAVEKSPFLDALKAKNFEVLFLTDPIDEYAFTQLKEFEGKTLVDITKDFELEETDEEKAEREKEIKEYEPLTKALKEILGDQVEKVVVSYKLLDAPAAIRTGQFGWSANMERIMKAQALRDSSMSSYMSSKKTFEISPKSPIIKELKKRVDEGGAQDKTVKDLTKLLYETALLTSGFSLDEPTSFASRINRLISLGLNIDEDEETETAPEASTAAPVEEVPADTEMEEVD

Compound	pIC50
Cc1noc(-c2ccc(O)cc2O)c1-c1ccc(F)cc1 [Example 9]	> 4.30
COc1ccc(-c2c(C)noc2-c2cc(C(=S)Nc3ccccc3)c(O)cc2O)cc1 [Example 18]	< 4.30
COc1ccc(-c2cnoc2-c2cc(Cl)c(O)cc2O)cc1OC [Example 8]	< 4.30
Cc1cc(O)cc(O)c1-c1onc(C(F)(F)F)c1-c1cscn1 [Example 12d]	> 4.30
CCCCCc1noc(-c2ccc(O)cc2O)c1-c1ccc(OC)cc1 [Example 21]	> 4.30
COc1ccc(-c2c(C)noc2-c2cc(C(OC)c3ccccc3)c(O)cc2O)cc1 (stereo not drawn) [Example 20]	> 4.30
COc1ccc(-c2c(C)noc2-c2cc(C(=O)Nc3ccccc3OC)c(O)cc2O)cc1 [Example 19]	> 4.30

target: T2, human full-length HSP90 (Homo sapiens, UniProt P08238); assay: Fluorescence Polarisation Assay (displacement of fluorescein-labelled probe RBT0045864-FAM); type: binding; settings: Fluorescence Polarisation Assay, activity range
T2 construct: E. coli expressed human full-length HSP90 protein; made in house; host or cells: E. coli
T2 sequence (P08238 whole entry): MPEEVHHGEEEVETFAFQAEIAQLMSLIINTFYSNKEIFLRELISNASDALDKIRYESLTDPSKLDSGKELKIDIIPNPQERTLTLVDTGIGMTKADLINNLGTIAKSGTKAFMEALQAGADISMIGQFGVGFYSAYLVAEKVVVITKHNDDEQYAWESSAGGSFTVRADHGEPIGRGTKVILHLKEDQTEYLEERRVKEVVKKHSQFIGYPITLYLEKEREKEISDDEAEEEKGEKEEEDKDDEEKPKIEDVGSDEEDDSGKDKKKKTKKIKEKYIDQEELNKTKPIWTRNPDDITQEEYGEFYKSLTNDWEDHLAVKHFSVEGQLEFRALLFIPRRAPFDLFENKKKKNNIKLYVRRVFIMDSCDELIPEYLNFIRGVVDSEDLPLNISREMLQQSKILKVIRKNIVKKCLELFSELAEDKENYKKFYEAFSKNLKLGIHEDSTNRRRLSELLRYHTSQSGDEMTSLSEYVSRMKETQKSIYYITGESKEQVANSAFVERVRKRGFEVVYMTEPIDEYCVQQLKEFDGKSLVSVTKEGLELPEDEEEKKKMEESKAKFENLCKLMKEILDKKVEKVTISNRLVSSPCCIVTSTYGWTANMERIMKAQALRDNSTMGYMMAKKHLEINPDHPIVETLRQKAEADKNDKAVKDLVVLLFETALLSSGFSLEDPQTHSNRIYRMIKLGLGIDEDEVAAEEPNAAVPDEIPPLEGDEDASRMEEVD
From the text: A Fluorescence Polarization_assay was also employed for the evaluation of some of the compounds of the Examples:
Fluorescence polarization {also known as fluorescence anisotropy} measures the rotation of a fluorescing species in solution, where the larger molecule the more polarized the fluorescence emission.
When the fluorophore is excited with polarized light, the emitted light is also polarized. The molecular size is proportional to the polarization of the fluorescence emission.
Test compound is added to the assay plate, left to equilibrate and the anisotropy measured again. Any change in anisotropy is due to competitive binding of compound to HSP90, thereby releasing probe.
Stored at room temperature. • 3) BSA (bovine serum albumen) 10 mg/ml (New England Biolabs # B9001S) • 4) 20 mM probe in 100 % DMSO stock concentration. Stored in the dark at RT. Working concentration is 200 nM diluted in AR water and stored at 4 °C.
1) Add 100µl 1x buffer to wells 11A and 12A (=FP BLNK) 2) Prepare assay mix - all reagents are kept on ice with a lid on the bucket as the probe is light-sensitive.
This gives 2.5 mM {50x} stock cpd - assuming cpds 20 mM. • 4) Repeat for wells A2 to A10. Control in columns 11 and 12. • 5) Transfer 5 µl from row A to row B- not column 12. Mix well. • 6) Transfer 5 µl from row B to row C. […] Add 2 µl of 100mM standard cpd to wells B12 - H12 {is positive control } • 13)The Z' factor is calculated from zero controls and positive wells.

Compound	pIC50
CCNC(=O)c1noc(-c2cc(-c3ccccc3)c(O)cc2O)c1-c1ccc(F)cc1 [Example 67]	> 5.00
CCNC(=O)c1noc(-c2cc(Cl)c(O)cc2O)c1Br [Example 27a]	> 5.00
CCNC(=O)c1noc(-c2cc(Cl)c(O)cc2O)c1-c1cccc(CN2CCN(C)CC2)c1 [Example 48]	> 5.00
CCNC(=O)c1noc(-c2cc(CCc3ccc(F)cc3)c(O)cc2O)c1-c1ccc(CN2CCOCC2)cc1 [Example 70]	> 5.00
CCNC(=O)c1noc(-c2cc(Cl)c(O)cc2O)c1-c1ccc2ccccc2c1 [Example 32]	> 5.00
CCNC(=O)c1noc(-c2cc(Cl)c(O)cc2O)c1-c1cccnc1 [Example 34]	> 5.00
CCNCc1noc(-c2cc(Cl)c(O)cc2O)c1-c1ccc(OC)cc1 [Example 40]	> 5.00
CCNC(=O)c1noc(-c2cc(Cl)c(O)cc2O)c1-c1ccc(F)c(CN2CCN(C(C)=O)CC2)c1 [Example 63]	> 5.00
CCNC(=O)c1noc(-c2cc(Cl)c(O)cc2O)c1-c1ccc(N2CCNCC2)cc1 [Example 26]	> 5.00
CCNC(=O)c1noc(-c2cc(Cl)c(O)cc2O)c1-c1cccc2ccccc12 [Example 35]	> 5.00
CCNC(=O)c1noc(-c2cc(CC)c(O)cc2O)c1-c1ccc(CN2CCCCC2)cc1 [Example 56]	> 5.00
CCNC(=O)c1noc(-c2cc(C(C)(C)C)c(O)cc2O)c1-c1ccc(CN2CCOCC2)cc1 [Example 77, 5-(5-tert-Butyl-2,4-dihydroxy-phenyl)-4-(4-morpholin-4-ylmethyl-phenyl)-isoxazole-3-carboxylic acid ethylamide]	> 5.00
CCNC(=O)c1noc(-c2cc(Cl)c(O)cc2O)c1-c1ccc(CN2CCS(=O)(=O)CC2)cc1 [Example 38]	> 5.00
CCNC(=O)c1noc(-c2cc(CCc3ccccc3)c(O)cc2O)c1-c1ccc(CN2CCOCC2)cc1 [Example 65, 5-(2,4-dihydroxy-5-phenethyl-phenyl)-4-(4-morpholin-4-ylmethylphenyl)-isoxazole-3-carboxylic acid ethylamide hydrochloride]	> 5.00
CCNC(=O)c1noc(-c2cc(CC)c(O)cc2O)c1-c1ccc(CN2CCN(C)CC2)cc1 [Example 57]	> 5.00
CC(=O)Nc1cccc(-c2c(C)noc2-c2cc(Cl)c(O)cc2O)c1 [Example 30]	> 5.00
CCNC(=O)c1noc(-c2cc(-c3ccc(F)cc3)c(O)cc2O)c1-c1ccc(CN2CCCCC2)cc1 [Example 72]	> 5.00
CCNC(=O)c1noc(-c2cc(Cl)c(O)cc2O)c1-c1ccc(F)c(CN2CCOCC2)c1 [Example 64]	> 5.00
CCNC(=O)c1noc(-c2cc(Cl)c(O)cc2O)c1-c1ccc(F)cc1 [Example 27]	> 5.00
CCNC(=O)c1noc(-c2cc(Cl)c(O)cc2O)c1-c1ccc(CNCc2cccnc2)cc1 [Example 58]	> 5.00
CCNC(=O)c1noc(-c2cc(Cl)c(O)cc2O)c1-c1ccc(CN2CCN(C)CC2)cc1 [Example 47]	> 5.00

Other lines, results leading:

pIC50	Compound
> 5.00	CCNC(=O)c1noc(-c2cc(Cl)c(O)cc2O)c1-c1ccc(CN2CCOCC2)cc1C [Example 41j]
> 5.00	CCNC(=O)c1noc(-c2cc(Cl)c(O)cc2O)c1-c1ccc(CNCc2ccoc2)cc1 [Example 41a]
> 5.00	CCNC(=O)c1noc(-c2cc(CC)c(O)cc2O)c1-c1ccc(CN(CC)CC)cc1 [Example 41b]
> 5.00	CCNC(=O)c1noc(-c2cc(Cl)c(O)cc2O)c1-c1ccccc1CN1CCOCC1 [Example 41m]
< 5.00	Cc1nc(-c2c(-c3ccc(O)cc3O)noc2C(F)(F)F)cs1 [Example 76A]
> 5.00	NC(=O)c1noc(-c2cc(Cl)c(O)cc2O)c1-c1ccc(CN2CCCCC2)cc1 [Example 41h]

same assay, conditions: table names no assay; parent examples tested in fluorescence polarization assay

pIC50	Compound
> 5.00	CC(C)NC(=O)c1noc(-c2cc(C(C)C)c(O)cc2O)c1-c1ccc(CNC2CCCCC2)cc1 [Example 78w]
> 5.00	CC(C)NC(=O)c1noc(-c2cc(C(C)C)c(O)cc2O)c1-c1ccc(CN2CCN(C)CC2)cc1 [Example 78t]
> 5.00	CCNC(=O)c1noc(-c2cc(C(C)C)c(O)cc2O)c1-c1ccc(CN2CCNCC2)cc1 [Example 78p]
> 5.00	CCNC(=O)c1noc(-c2cc(C(C)C)c(O)cc2O)c1-c1ccc(CNCC(=O)NC(C)C)cc1 [Example 78ad]
> 5.00	CC(C)NC(=O)c1noc(-c2cc(C(C)C)c(O)cc2O)c1-c1ccc(CN2CCOCC2)cc1 [Example 78s]
> 5.00	CCNC(=O)c1onc(-c2cc(Cl)c(O)cc2O)c1-c1ccc(CN2CCOCC2)cc1 [Example 76C]
> 5.00	CC(C)NC(=O)c1noc(-c2cc(C(C)C)c(O)cc2O)c1-c1ccc(CN2CCC(F)(F)CC2)cc1 [Example 78aa]
> 5.00	CCNC(=O)c1noc(-c2cc(C(C)C)c(O)cc2O)c1-c1ccc(CNC2CCNCC2)cc1 [Example 78q]
> 5.00	CCNC(=O)c1noc(-c2cc(-c3ccccc3C)c(O)cc2O)c1-c1ccc(CN2CCN(C)CC2)cc1 [Example 75s]
> 5.00	CCNC(=O)c1noc(-c2cc(C(C)C)c(O)cc2O)c1-c1ccc(CN2CCN(C)CC2)cc1 [Example 78c]
> 5.00	CCNC(=O)CNCc1ccc(-c2c(C(=O)NCC)noc2-c2cc(C(C)C)c(O)cc2O)cc1 [Example 78ah]
> 5.00	CCNC(=O)c1noc(-c2cc(-c3ccccc3F)c(O)cc2O)c1-c1ccc(CN2CCN(C)CC2)cc1 [Example 75g]
> 5.00	CCN(CC)Cc1ccc(-c2c(C(=O)NC(C)C)noc2-c2cc(C(C)C)c(O)cc2O)cc1 [Example 78u]

Compound	pIC50
CCNC(=O)c1noc(-c2cc(C(C)(C)C)c(O)cc2O)c1-c1ccc(CN2CCOCC2)cc1 [Example 77a]	> 5.00
